Reference: ChEMBL document CHEMBL1201862, “PubChem BioAssay data set” (2004)
Blank lines part the entries; values can stand above or below the compound they belong to. Active and inactive are the calls of the source.

Experiments:
SUMO-activating enzyme [1] = biological target: T1, SUMO-activating enzyme (Homo sapiens, UniProt Q9UBT2); assay: SUMOylation inhibitor hit validation, confirmation, SUMOylation inhibitor project, biochemical, AlphaScreen (AID 2018); assay type: functional
Large T antigen = Large T antigen (Simian virus 40, UniProt P03070); assay type: functional, Betapolyomavirus macacae;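 also: Confirmatory-stage PubChem screen for compounds that inhibit SV40 T antigen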
SUMO-activating enzyme [2] = biological target: T1, SUMO-activating enzyme; assay: inhibitors of in vitro SUMOylation cascade, primary screen, biochemical, HTRF, uHTS (AID 2006); assay type: protein-complex assay
[3] = biological target: Intestinal-type alkaline phosphatase (Homo sapiens, UniProt P09923); assay: activation of human intestinal alkaline phosphatase – biochemical, dose response (AID 488873); assay type: functional
[4] = biological target: Intestinal-type alkaline phosphatase (Mus musculus, UniProt P24822); assay: mouse intestinal alkaline phosphatase activators, dose response, biochemical, luminescence, uHTS hits (AID 488783); assay type: functional
[5] = biological target: T2, Alkaline phosphatase, tissue-nonspecific isozyme (Homo sapiens, UniProt P05186); assay: TNAP enzyme activators, dose response, selectivity assay for mouse IAP activator project, biochemical, TNAP isozyme, mouse IAP uHTS hits (AID 488880); assay type: functional
T2 sequence (P05186 whole entry): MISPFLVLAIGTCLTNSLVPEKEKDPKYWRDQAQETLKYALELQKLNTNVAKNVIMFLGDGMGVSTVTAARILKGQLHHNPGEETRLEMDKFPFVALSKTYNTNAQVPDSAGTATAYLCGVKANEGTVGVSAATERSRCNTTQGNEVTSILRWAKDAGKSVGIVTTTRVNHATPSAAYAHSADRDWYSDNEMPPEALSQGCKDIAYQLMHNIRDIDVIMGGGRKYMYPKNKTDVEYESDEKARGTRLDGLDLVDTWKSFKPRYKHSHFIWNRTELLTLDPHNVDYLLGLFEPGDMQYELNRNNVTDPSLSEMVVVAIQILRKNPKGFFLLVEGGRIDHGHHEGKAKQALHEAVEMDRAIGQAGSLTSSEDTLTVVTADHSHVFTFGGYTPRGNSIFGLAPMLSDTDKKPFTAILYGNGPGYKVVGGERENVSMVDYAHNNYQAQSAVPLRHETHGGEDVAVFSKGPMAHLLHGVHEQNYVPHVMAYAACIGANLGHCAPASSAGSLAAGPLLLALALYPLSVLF

[6] = biological target: T3, Kappa-type opioid receptor (Homo sapiens, UniProt P41145); assay: KOR agonist analogs, arrestin-GFP redistribution, SAR follow-up, imaging, image-based, set 3 (AID 488833); assay type: functional
Mu-type opioid receptor = Mu-type opioid receptor (Homo sapiens, UniProt P35372); assay: SAR Analysis of Agonists of the MOR Receptor using an Image-Based Assay - Set 3. [Related pubchem assays (depositor defined):AID1777, AID1785, AID1786, AID1966, AID2133, AID2136, AID2284, AID2285, AID2352]; assay type: functional
[7] = biological target: Delta-type opioid receptor (Homo sapiens, UniProt P41143); assay: SAR Analysis of Agonists of the DOR Receptor using an Image-Based Assay - Set 3. [Related pubchem assays (depositor defined):AID1777, AID1786]; assay type: functional
[8] = biological target: T3, Kappa-type opioid receptor; assay: SAR analysis of small molecule agonists of the kappa opioid receptor via a luminescent beta-arrestin assay - Set 3. [Related pubchem assays (depositor defined):AID1777, AID1785, AID1786, AID1966, AID2133, AID2136, AID2284, AID2500]; assay type: functional
[9] = biological target: T4, Tyrosine-protein phosphatase non-receptor type 22 (Homo sapiens, UniProt Q9Y2R2); assay: SAR LYP1 Fluorescent Assay using pCAP substrate for In Vitro dose response studies - Set 2. [Related pubchem assays (depositor defined):AID1779, AID1784, AID2135, AID449727]; assay type: functional
T4 sequence (Q9Y2R2 whole entry): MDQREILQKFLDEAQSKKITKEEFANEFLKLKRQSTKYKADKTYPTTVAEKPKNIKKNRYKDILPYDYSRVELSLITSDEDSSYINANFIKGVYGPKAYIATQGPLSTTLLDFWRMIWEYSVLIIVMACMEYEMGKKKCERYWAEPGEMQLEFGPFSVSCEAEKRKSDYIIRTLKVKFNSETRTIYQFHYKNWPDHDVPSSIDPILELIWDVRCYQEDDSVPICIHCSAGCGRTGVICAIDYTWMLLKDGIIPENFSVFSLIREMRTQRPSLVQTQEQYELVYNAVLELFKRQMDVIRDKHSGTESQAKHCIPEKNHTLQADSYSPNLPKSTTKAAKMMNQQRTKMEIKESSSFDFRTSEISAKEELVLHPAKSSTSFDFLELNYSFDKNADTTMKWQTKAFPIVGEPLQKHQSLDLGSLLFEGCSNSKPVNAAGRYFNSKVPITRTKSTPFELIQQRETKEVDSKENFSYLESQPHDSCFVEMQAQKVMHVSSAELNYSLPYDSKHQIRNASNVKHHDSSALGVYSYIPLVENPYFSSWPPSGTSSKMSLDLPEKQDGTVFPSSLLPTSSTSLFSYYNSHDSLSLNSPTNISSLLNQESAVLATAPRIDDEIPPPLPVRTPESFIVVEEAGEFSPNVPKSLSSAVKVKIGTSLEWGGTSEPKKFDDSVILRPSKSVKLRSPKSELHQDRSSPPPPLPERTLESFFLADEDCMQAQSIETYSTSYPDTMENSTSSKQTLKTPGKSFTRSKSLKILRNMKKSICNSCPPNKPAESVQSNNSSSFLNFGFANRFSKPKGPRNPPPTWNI

[10] = biological target: Tyrosine-protein phosphatase non-receptor type 12 (Homo sapiens, UniProt Q05209); assay: SAR Selectivity Analysis of small molecule inhibitors of PEST using pCAP in a fluorescence assay. [Related pubchem assays (depositor defined):AID1779, AID1784, AID2135]; assay type: functional
[11] = biological target: T4, Tyrosine-protein phosphatase non-receptor type 22; assay: SAR LYP1 Fluorescent Assay using OMFP substrate for In Vitro dose response studies - Set 3. [Related pubchem assays (depositor defined):AID1779, AID1784, AID2140, AID2686]; assay type: functional
[12] = biological target: T5, Tyrosine-protein phosphatase non-receptor type 7 (Homo sapiens, UniProt P35236); assay: HePTP (PTPN7) phosphatase inhibitor potency, SAR follow-up, biochemical, set 2 (AID 449736); assay type: functional
T5 sequence (P35236 whole entry): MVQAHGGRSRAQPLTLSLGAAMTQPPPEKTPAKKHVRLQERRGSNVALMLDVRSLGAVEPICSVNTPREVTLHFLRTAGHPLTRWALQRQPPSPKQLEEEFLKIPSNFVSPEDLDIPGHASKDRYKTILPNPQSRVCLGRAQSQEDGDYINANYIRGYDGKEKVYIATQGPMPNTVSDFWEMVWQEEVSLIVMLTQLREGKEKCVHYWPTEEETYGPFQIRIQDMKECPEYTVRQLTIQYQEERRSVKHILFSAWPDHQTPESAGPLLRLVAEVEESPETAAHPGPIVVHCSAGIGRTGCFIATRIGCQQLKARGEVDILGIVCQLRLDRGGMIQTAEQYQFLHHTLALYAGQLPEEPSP

[13] = biological target: T4, Tyrosine-protein phosphatase non-receptor type 22; assay: LYP (PTPN22) phosphatase inhibitor potency, SAR follow-up, biochemical, pCAP fluorogenic substrate, fluorescence, set 3 (AID 449727); assay type: functional
[14] = biological target: T4, Tyrosine-protein phosphatase non-receptor type 22; assay: PubChem AID 2135
[15] = biological target: T4, Tyrosine-protein phosphatase non-receptor type 22; assay: PubChem AID 2140
[16] = biological target: T4, Tyrosine-protein phosphatase non-receptor type 22; assay: SAR LYP1 Fluorescent Assay using OMFP substrate for In Vitro dose response studies - Set 2. [Related pubchem assays (depositor defined):AID1779, AID1784, AID2140, AID449726, AID488869]; assay type: functional

T1 sequence (Q9UBE0 whole entry): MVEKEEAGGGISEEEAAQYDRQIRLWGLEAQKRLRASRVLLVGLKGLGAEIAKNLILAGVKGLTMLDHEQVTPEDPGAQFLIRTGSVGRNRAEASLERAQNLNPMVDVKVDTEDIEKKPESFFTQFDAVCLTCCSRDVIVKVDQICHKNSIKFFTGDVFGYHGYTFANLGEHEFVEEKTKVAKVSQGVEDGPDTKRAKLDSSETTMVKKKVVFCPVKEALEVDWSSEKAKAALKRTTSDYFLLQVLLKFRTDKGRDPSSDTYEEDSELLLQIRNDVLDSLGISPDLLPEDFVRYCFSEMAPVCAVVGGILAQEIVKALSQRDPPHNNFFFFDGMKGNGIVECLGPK
T1 sequence (Q9UBT2 whole entry): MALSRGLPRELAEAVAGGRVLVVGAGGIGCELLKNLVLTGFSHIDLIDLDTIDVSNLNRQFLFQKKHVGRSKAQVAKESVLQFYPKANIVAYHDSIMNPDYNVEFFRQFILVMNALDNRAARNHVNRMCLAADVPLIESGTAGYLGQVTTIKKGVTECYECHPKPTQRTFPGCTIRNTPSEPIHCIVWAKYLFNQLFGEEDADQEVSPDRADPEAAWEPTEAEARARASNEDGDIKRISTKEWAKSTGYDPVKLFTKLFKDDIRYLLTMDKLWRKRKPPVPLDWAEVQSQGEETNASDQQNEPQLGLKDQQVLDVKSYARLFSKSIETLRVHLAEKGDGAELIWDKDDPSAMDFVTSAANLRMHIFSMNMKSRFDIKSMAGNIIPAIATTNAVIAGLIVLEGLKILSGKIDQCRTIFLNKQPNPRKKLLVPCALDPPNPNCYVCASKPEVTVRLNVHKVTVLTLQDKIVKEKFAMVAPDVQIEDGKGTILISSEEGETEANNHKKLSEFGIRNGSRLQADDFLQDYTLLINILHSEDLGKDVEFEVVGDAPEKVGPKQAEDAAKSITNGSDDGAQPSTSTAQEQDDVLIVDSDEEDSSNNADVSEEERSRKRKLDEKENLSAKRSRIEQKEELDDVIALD
T3 sequence (P41145 whole entry): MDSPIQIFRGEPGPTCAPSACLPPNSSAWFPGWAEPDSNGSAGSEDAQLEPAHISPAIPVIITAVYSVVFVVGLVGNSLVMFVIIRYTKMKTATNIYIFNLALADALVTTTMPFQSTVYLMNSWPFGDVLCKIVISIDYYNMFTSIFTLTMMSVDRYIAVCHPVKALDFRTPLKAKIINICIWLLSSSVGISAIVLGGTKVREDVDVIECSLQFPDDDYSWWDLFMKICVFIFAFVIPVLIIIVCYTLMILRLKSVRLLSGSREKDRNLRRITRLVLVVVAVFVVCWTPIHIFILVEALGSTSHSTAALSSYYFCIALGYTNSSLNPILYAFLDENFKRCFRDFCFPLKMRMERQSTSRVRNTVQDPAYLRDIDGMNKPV
Sequence of Intestinal-type alkaline phosphatase (Homo sapiens, UniProt P09923) (P09923 whole entry): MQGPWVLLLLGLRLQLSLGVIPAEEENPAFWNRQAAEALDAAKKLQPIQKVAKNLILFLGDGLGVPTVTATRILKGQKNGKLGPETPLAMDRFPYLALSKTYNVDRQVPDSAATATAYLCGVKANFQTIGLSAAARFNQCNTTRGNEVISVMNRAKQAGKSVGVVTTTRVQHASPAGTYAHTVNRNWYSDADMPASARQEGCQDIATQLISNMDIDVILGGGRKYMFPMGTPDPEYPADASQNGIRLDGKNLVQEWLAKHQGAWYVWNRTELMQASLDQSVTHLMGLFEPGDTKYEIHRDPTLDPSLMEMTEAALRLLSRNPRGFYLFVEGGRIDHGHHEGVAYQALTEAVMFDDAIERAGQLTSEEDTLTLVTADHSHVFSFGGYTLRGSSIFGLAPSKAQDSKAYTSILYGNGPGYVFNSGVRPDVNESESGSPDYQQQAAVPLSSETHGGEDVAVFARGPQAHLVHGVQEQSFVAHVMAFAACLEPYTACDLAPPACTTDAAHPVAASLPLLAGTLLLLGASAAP
Sequence of Mu-type opioid receptor (P35372 whole entry): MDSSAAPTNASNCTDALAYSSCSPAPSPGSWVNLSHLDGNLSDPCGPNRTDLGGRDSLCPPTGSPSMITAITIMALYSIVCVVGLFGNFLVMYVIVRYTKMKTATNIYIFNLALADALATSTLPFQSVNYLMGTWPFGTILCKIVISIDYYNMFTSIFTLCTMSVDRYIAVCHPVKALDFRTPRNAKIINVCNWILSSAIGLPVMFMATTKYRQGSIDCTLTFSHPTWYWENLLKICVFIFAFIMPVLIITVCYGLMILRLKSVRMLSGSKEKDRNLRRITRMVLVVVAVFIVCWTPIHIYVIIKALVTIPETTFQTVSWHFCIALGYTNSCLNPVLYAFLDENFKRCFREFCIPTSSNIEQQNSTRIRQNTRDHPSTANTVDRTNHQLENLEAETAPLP
Sequence of Tyrosine-protein phosphatase non-receptor type 12 (Q05209 whole entry): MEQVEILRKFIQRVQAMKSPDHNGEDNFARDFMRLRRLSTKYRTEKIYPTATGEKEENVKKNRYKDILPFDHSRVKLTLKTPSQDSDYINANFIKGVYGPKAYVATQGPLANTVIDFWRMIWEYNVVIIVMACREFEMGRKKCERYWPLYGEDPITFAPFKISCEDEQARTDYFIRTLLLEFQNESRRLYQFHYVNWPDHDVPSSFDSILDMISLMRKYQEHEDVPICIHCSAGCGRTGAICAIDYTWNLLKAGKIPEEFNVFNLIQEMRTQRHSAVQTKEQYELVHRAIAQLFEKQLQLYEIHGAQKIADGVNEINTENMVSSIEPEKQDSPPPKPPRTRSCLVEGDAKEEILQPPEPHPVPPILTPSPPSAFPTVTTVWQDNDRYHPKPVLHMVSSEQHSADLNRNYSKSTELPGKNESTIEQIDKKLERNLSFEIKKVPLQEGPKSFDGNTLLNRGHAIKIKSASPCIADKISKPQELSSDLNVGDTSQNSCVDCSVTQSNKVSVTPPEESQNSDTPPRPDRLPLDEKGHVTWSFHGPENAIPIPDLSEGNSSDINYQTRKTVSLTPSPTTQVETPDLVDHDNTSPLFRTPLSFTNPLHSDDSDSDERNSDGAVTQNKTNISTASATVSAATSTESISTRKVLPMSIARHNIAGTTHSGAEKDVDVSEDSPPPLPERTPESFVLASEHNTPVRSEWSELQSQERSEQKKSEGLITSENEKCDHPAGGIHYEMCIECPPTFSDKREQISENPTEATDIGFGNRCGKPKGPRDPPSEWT
Sequence of Delta-type opioid receptor (P41143 whole entry): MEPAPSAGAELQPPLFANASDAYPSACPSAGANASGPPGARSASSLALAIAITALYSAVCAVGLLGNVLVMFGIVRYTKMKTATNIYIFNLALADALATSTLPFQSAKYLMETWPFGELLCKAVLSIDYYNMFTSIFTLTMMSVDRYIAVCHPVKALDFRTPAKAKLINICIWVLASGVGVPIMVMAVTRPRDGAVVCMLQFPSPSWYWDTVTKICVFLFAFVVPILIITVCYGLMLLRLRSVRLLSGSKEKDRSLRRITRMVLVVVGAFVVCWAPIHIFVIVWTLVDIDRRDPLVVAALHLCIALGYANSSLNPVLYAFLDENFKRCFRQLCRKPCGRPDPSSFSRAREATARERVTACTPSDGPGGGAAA
Sequence of Large T antigen (P03070 whole entry): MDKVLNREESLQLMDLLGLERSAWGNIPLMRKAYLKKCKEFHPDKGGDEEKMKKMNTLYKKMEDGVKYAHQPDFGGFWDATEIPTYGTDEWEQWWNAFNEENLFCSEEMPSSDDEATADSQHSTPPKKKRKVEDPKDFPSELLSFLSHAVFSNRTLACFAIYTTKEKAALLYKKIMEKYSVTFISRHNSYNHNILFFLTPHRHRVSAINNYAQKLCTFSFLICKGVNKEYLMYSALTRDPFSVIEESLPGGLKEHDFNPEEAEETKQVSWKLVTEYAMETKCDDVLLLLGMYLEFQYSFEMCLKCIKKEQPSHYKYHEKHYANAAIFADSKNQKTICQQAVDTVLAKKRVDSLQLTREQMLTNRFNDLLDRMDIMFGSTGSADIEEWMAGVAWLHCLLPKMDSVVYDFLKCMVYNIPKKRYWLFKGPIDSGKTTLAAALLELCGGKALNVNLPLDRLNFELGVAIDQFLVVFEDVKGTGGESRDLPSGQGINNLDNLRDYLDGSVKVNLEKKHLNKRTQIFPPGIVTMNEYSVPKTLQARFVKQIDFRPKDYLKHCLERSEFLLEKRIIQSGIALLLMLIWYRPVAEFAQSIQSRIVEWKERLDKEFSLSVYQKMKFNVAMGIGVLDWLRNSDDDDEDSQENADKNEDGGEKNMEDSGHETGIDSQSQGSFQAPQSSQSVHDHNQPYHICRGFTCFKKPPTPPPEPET
Sequence of Intestinal-type alkaline phosphatase (Mus musculus, UniProt P24822) (P24822 whole entry): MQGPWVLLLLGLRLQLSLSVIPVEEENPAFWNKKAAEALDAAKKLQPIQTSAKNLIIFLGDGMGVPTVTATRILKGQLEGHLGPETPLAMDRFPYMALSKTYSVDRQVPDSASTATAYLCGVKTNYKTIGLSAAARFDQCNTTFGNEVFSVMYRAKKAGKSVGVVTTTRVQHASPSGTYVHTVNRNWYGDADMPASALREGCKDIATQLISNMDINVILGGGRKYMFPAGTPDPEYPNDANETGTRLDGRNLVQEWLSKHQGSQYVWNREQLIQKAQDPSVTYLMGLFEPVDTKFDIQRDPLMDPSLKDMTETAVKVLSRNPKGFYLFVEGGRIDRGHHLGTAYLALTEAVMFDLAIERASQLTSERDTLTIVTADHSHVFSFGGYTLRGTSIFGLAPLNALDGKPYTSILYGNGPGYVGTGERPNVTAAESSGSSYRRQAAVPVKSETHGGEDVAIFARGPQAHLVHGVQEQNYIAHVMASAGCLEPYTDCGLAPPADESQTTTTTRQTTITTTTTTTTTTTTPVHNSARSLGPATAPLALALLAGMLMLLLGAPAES

Structure (SMILES): O=C(CCN1C(=O)/C(=C/c2ccco2)SC1=S)Nc1ccc(C(=O)O)c(O)c1
IC50 (SUMO-activating enzyme [1]): 1.46 µM (active)
IC50 (Large T antigen): 56.1 µM (active)
IC50 (SUMO-activating enzyme [2]): 14.3 µM (active)
EC50 [3]: 66.2 µM (active)
EC50 [4]: 7.32 µM (active)
EC50 [5]: 84.9 µM (active)

EC50 [6]: 3.52 µM (active)
EC50 (Mu-type opioid receptor): > 32 µM (inactive)
EC50 [7]: > 64 µM (inactive)
EC50 [8]: 4.64 µM (active)
Structure (SMILES): N#Cc1ccc(CSc2nnc(-c3ccccn3)n2Cc2cccs2)cc1

IC50 [9]: 33.9 µM (active)
IC50 [10]: 22.1 µM (active)
IC50 [11]: 94.2 µM (active)
IC50 [12]: 7.01 µM (active)
IC50 [13]: 61.2 µM (active)
IC50 [14]: 59.2 µM (active)
IC50 [15]: > 100 µM (inactive)
IC50 [16]: 35.5 µM (active)
Structure (SMILES): COc1cc(/C=C(\C#N)c2ccc(F)cc2)ccc1OCc1ccc(C(=O)O)cc1
